Measured values as given in patent US9499493B2, “2,4-pyrimidinediamine compounds and their uses” (Rigel Pharmaceuticals, Inc., priority 2002, dated 2016).

Experiments:
[1] = tested on: cultured human mast cells (CHMC); experiment: CHMC low cell density ionomycin activation: tryptase assay; format: cell-based
[2] = tested on: cultured human mast cells (CHMC); experiment: CHMC low cell density IgE activation: tryptase assay; format: cell-based; conditions: anti-IgE
Outline: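 Degranulation is read as supernatant tryptase activity, using tryptase substrate incubated 30 min at room temperature. Before this, CHMC at low density (1000-1500 cells/well) rest 1 hr at 37° C and are triggered with anti-IgE for 30 min at 37° C.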

Row | IC50 [1] [nM] | IC50 [2] [nM] | Structure (SMILES)
1 | > 10000 | 889 | CNC(=O)COc1cccc(Nc2ncc(F)c(Nc3ccc4[nH]ncc4c3)n2)c1 [R935279, 5-Fluoro-N4-(indazoline-5-yl)-N2-[3-(N-methylaminocarbonylmethyleneoxy)phenyl]-2,4-pyrimidinediamine]
2 | > 10000 | 1400 | CNC(=O)COc1cccc(Nc2ncc(F)c(Nn3cccc3)n2)c1 [R935281, 5-Fluoro-N2-[3-(N-methylaminocarbonylmethyleneoxy)phenyl]-N4-(1H-pyrrol-1-yl)-2,4-pyrimidinediamine]
3 | > 10000 | 1160 | CCOC(=O)CCn1ncc2ccc(Nc3ncc(F)c(Nc4ccc5c(c4)OCCO5)n3)cc21 [R935286, N2-[1-(2-ethoxycarbonylethyl)indazoline-6-yl]-N4-(3,4-ethylenedioxyphenyl)-5-fluoro-2,4-pyrimidinediamine]
4 | > 10000 | 403 | OCCCn1ncc2ccc(Nc3ncc(F)c(Nc4ccc5c(c4)OCCO5)n3)cc21 [R935287, N4-(3,4-Ethylenedioxyphenyl)-5-fluoro-N2-[1-(3-hydroxypropyl)indazoline-6-yl]-2,4-pyrimidinediamine]
5 | > 10000 | 1580 | CNC(=O)CCn1ncc2ccc(Nc3nc(Nc4ccc5c(c4)OCCO5)ncc3F)cc21 [R935288, N2-(3,4-Ethylenedioxyphenyl)-5-fluoro-N4-[1-[2(N-methylaminocarbonyl)ethyl]-indazoline-6-yl]-2,4-pyrimidinediamine]
6 | > 10000 | 1690 | CCOC(=O)CCn1ncc2ccc(Nc3nc(Nc4cccc(OC(C)C)c4)ncc3F)cc21 [R935289, N4-[1-(2-Ethoxycarbonylethyl)indazoline-6-yl]-5-fluoro-N2-(isopropoxyphenyl)-2,4-pyrimidinediamine]
7 | > 10000 | 340 | CC(C)Oc1ccc(Nc2nc(Nc3ccc4cnn(CCCO)c4c3)ncc2F)cc1 [R935290, 5-Fluoro-N2-[1-(3-hydroxypropyl)indazoline-6-yl]-N4-(4-isopropoxyphenyl)-2,4-pyrimidinediamine]
8 | > 10000 | 1360 | CNC(=O)CCn1ncc2ccc(Nc3ncc(F)c(Nc4ccc(OC(C)C)cc4)n3)cc21 [R935291, 5-Fluoro-N4-(4-isopropoxyphenyl)-N2-[1-[2(N-methylamino)carbonyl]ethyl-indazoline-6-yl]-2,4-pyrimidinediamine]
9 | > 10000 | 388 | CNC(=O)CCn1ncc2ccc(Nc3ncc(F)c(Nc4cccc(O)c4)n3)cc21 [R935294, 5-Fluoro-N4-(3-hydroxyphenyl)-N2-[1-[2-(N-methylaminocarbonyl)ethyl]-indazoline-6-yl]-2,4-pyrimidinediamine]
10 | > 10000 | 1940 | CCOC(=O)CCn1ncc2ccc(Nc3nc(Nc4ccc5oc(C(=O)OC)cc5c4)ncc3F)cc21 [R935295, N4-[1-(2-Ethoxycarbonylethyl)indazoline-6-yl]-5-fluoro-N2-(2-methoxycarbonylbenzofur-5-yl)-2,4-pyrimidinediamine]
11 | > 10000 | 7330 | CNC(=O)CCn1ncc2ccc(Nc3ncc(F)c(Nc4ccc5oc(C(=O)NC)cc5c4)n3)cc21 [R935297, 5-Fluoro-N4-[2-(N-methylaminocarbonyl)benzofuran-5-yl]-N2-[1-[2(N-methylaminocarbonyl)ethyl]-indazoline-6-yl]-2,4-pyrimidinediamine]
12 | > 10000 | 210 | Cn1cc2cc(Nc3ncc(F)c(Nc4cccc(O)c4)n3)ccc2n1 [R935299, 5-Fluoro-N4-(3-hydroxyphenyl)-N2-(2-methy-indazoline-5-yl)-2,4-pyrimidinediamine]
13 | > 10000 | 243 | Cn1cc2cc(Nc3ncc(F)c(Nc4ccc5c(c4)OCCO5)n3)ccc2n1 [R935300, N4-(3,4-Ethyelenedioxyphenyl)-5-fluoro-N2-(2-methy-indazoline-5-yl)-2,4-pyrimidinediamine]
14 | > 10000 | 189 | OCCCn1ncc2cc(Nc3ncc(F)c(Nc4ccc5c(c4)OCCO5)n3)ccc21 [R935302, N4-(3,4-Ethylenedioxyphenyl)-5-fluoro-N2-[1-(3-hydroxypropyl)indazoline-5-yl]-2,4-pyrimidinediamine]
15 | > 10000 | 188 | OCCCn1ncc2cc(Nc3ncc(F)c(Nc4cccc(O)c4)n3)ccc21 [R935304, 5-Fluoro-N4-(3-hydroxyphenyl)-N2-[1-(3-hydroxypropyl)indazoline-5-yl]-2,4-pyrimidinediamine]
16 | > 10000 | 495 | CNC(=O)CCn1ncc2cc(Nc3ncc(F)c(Nc4cccc(O)c4)n3)ccc21 [R935305, 5-Fluoro-N4-(3-hydroxyphenyl)-N2-[1-[2(N-methylaminocarbonyl)ethyl]-indazoline-5-yl]-2,4-pyrimidinediamine]
17 | > 10000 | 275 | OCCCn1ncc2ccc(Nc3ncc(F)c(Nc4ccc5oc(CO)cc5c4)n3)cc21 [R935308, 5-Fluoro-N4-(2-hydroxymethylbenzofur-5-yl)-N2-[1-(3-hydroxypropyl)indazoline-6-yl]-2,4-pyrimidinediamine]
18 | > 10000 | 411 | COC(=O)c1ccc(Cn2cc3ccc(Nc4ncc(F)c(Nc5ccc(OC(C)C)cc5)n4)cc3n2)c(OC)c1 [R935338, 5-Fluoro-N4-(4-isopropoxyphenyl)-N2-[2-(2-methoxy-4-carbomethoxybenzyl)indazoline-6-yl]-2,4-pyrimidinediamine]
19 | > 10000 | > 10000 | Cn1ncc2cc(Nc3ncc(F)c(Nc4ccc(Cl)cc4)n3)ccc21 [R935351, N4-(4-Chlorophenyl)-5-fluoro-N2-(1-methyl-indazoline-5-yl)-2,4-pyrimidinediamine]
20 | > 10000 | > 10000 | CCOC(=O)CCn1ncc2cc(Nc3ncc(F)c(Nc4ccc(Cl)cc4)n3)ccc21 [R935353, N4-(4-Chlorophenyl)-N2-[1-(2-ethoxycarbonylethyl)indazoline-5-yl]-5-fluoro-2,4-pyrimidinediamine]
21 | > 10000 | > 10000 | Cn1ncc2cc(Nc3ncc(F)c(Nc4ccc(Cl)c(Cl)c4)n3)ccc21 [R935355, N4-(3,4-Dichlorophenyl)-5-fluoro-N2-(1-methylindazoline-5-yl)-2,4-pyrimidinediamine]
22 | > 10000 | > 10000 | Cn1ncc2cc(Nc3ncc(F)c(Nc4ccc(F)c(F)c4)n3)ccc21 [R935358, N4-(3,4-Difluorophenyl)-5-fluoro-N2-(1-methylindazoline-5-yl)-2,4-pyrimidinediamine]
23 | > 10000 | 1030 | Cn1ncc2cc(Nc3ncc(F)c(Nc4ccc(OC(F)(F)F)c(Cl)c4)n3)ccc21 [R935359, N4-(3-chloro-4-trifluoromethoxyphenyl)-5-fluoro-N2-(1-methylindazoline-5-yl)-2,4-pyrimidinediamine]
24 | > 10000 | 903 | CCOC(=O)CCn1ncc2cc(Nc3ncc(F)c(Nc4cccc(OC(F)(F)F)c4)n3)ccc21 [R935360, N2-[1-(2-Ethoxycarbonylethyl)indazoline-5-yl]-5-fluoro-N4-(3-trifluoromethoxyphenyl)-2,4-pyrimidinediamine]
25 | > 10000 | 1440 | CNC(=O)CCn1ncc2cc(Nc3ncc(F)c(Nc4cccc(OC(F)(F)F)c4)n3)ccc21 [R935361, 5-Fluoro-N2-[1-[2(N-methylaminocarbonyl)ethyl]indazoline-5-yl]-N4-(3-trifluoromethoxyphenyl)-2,4-pyrimidinediamine]
